Source: the NIST ThermoML archive (doi:10.1016/j.jct.2017.11.012)

Settings: for mass density: 101.33 kPa, Liquid, Buoyancy - hydrostatic balance with magnetic suspension - one sinker

CCCCn1cc[n+](C)c1.[Br-] [1-butyl-3-methylimidazolium bromide]
surface tension liquid-gas [mN/m]
Settings	Ring tensiometer	Wilhelmy Plate
308.39 K	50.28	49.98
313.11 K	49.8	49.69
318.48 K	49.51	49.33
323.54 K	–	48.98
323.57 K	49.22	–
328.1 K	–	48.67
328.14 K	48.96	–
333.02 K	–	48.35
333.03 K	48.6	–
337.99 K	48.27	–
338.01 K	–	48.07
342.75 K	48	47.75
349.14 K	47.72	–
349.16 K	–	47.31
353.12 K	47.24	–
353.41 K	–	47.09
358.27 K	47.27	–
358.3 K	–	46.78
362.9 K	46.86	–
362.92 K	–	46.39

Settings	mass density [kg/m3]
308.39 K	1299.64
313.12 K	1296.36
318.5 K	1292.56
323.58 K	1288.88
328.14 K	1285.46
333.02 K	1281.54
337.96 K	1278.29
342.67 K	1275.32
349.08 K	1271.43
353.08 K	1268.23
358.19 K	1264.49
362.86 K	1261.43

CCCCCCCCCCn1cc[n+](C)c1.[Br-] [1-decyl-3-methylimidazolium bromide]
Settings	mass density [kg/m3]
298.41 K	1128.2
303.45 K	1124.55
308.2 K	1121.27
313.5 K	1117.38
318.29 K	1113.91
322.96 K	1110.37
327.96 K	1106.69
333.59 K	1102.59
337.76 K	1099.91
343.08 K	1095.88
348.29 K	1092.59
352.96 K	1089.23
358.48 K	1085.6
361.87 K	1083.32

Settings	surface tension liquid-gas [mN/m]
303.38 K, Ring tensiometer	28.04
303.43 K, Wilhelmy Plate	27.64
308.15 K, Ring tensiometer	27.97
313.47 K, Ring tensiometer	27.73
318.26 K, Ring tensiometer	27.54
322.99 K, Ring tensiometer	27.14
323.02 K, Wilhelmy Plate	26.87
328.01 K, Ring tensiometer	27.01
328.08 K, Wilhelmy Plate	26.65
332.75 K, Ring tensiometer	26.87
332.76 K, Wilhelmy Plate	26.45
337.48 K, Wilhelmy Plate	26.22
338.06 K, Ring tensiometer	26.74
343.15 K, Ring tensiometer	26.07
343.19 K, Wilhelmy Plate	25.97
347.35 K, Ring tensiometer	26.14
347.47 K, Wilhelmy Plate	25.82
352.46 K, Ring tensiometer	25.77
352.93 K, Wilhelmy Plate	25.57
358.38 K, Ring tensiometer	25.28
358.41 K, Wilhelmy Plate	25.36
361.45 K, Ring tensiometer	25.51
361.5 K, Wilhelmy Plate	25.22

CCn1cc[n+](C)c1.[Br-] [1-ethyl-3-methylimidazolium bromide]
surface tension liquid-gas [mN/m]
Settings	343.14 K	348.29 K	348.32 K	352.84 K	358.28 K	364.1 K	364.11 K
Ring tensiometer	62.01	61.86	–	61.28	61.25	60.53	–
Wilhelmy Plate	–	–	61.4	61.03	60.65	–	60.34

Settings	mass density [kg/m3]
348.26 K	1381.17
352.77 K	1378.39
358.17 K	1375.04
364.02 K	1370.88
